A short description of data set [1]: Equilibrium solubility in aqueous buffer (HPLC UV). The data set is classed as physicochemical. To be noted: thermodynamic from solid. Here is the method: The equilibrium solubility of compounds was measured in aqueous buffer. Excess amount of solid compound was added into buffer solution and the sample was briefly sonicated and then shaken at rt for 24 h. The sample was filtered and the concentration was analyzed by HPLC UV. A standard solution at 0.2 mg/mL was prepared in methanol or acetonitrile for each compound and used as an external standard for quantification. The scale utilized in Tables 2 is as follows: +++ greater than 1 mg/mL; ++ between 1 and 0.1 mg/mL; and + less than 0.1 mg/mL.

The subject of data set [2] is A549 cells. The experiment in a line: Inhibition of cancer cell growth, MTT assay. As to conditions: Homo sapiens; A549 cells, 72 h compound exposure, MTT; read-out: IC50. The data set is classed as cell-based. How it is done: Inhibition of cell growth by compounds was measured using MTT assay (Mosmann, T., Journal of Immunological Methods, 1983, 65, 55-63). Tumor cell lines were purchased from ATCC (American Type Culture Collection, Manassas, Va.). All cell lines were maintained in RPMI 1640 (Hyclone) supplemented with 10% fetal bovine serum (FBS, Hyclone), glutamine (2 mM, Hyclone), and antibiotics (penicillin 100 U/mL and streptomycin 50 μg/mL) at 37° C. in a humidified atmosphere of 5% CO2 in air. Taxol (as a positive control, Sigma) and compounds were dissolved in DMSO (Sigma), and the final concentration of DMSO in the medium was 1%. Tumor cells were plated in 96-well plates at densities of about 4000 cells/well of a 96-well plate and allowed to adhere/grow for 24 h. They were then treated with various concentrations of drug for 72 h. 3-(4,5-Dimethylthiazol-2-yl)-2,5-diphenyltetrazolium bromide (MTT, Sigma) was used to determine the number of viable cells at the time of compound addition and the number of cells remaining after 72 h compound exposure. The number of cells remaining after 72 h was compared to the number of viable cells at the time of compound addition by measuring the absorbance at 570 nm, allowing for the calculation of growth inhibition.
All concentrations of compounds were tested in triplicate and controls were averaged over 4 wells. IC50 was calculated by plotting the concentration of compound vs the percentage of inhibition in treated wells using GraphPad Prism 5. […] The scale utilized in Table 3 is as follows: ++++ less than 20 nM; +++ between 20 nM and 100 nM; ++ between 100 nM and 1000 nM; and + greater than 1000 nM.
(In general: Tetrazolium assays rely on reduction of a dye to a coloured formazan, in cell work by metabolically active cells.)

Where [3] appears, read: aqueous buffer, equilibrium solubility, NaOAc/AcOH buffer (100 mM, pH 5.0), rt, 24 h, read-out: Solubility.

In brackets after ≈: the same amount, converted by molar mass. Like-named read-outs stand apart in the source and are kept apart here.

As to `C[C@]12CC[C@H](NC(=O)NCCN)C[C@H]1CC[C@@H]1[C@@H]2CC[C@]2(C)[C@@H](c3ccc(=O)oc3)CC[C@]12O` [Compound C10, 1-(2-aminoethyl)-3-((3S,5R,8R,9S,10S,13R,14S,17R)-14-hydroxy-10,13-dimethyl-17-(2-oxo-2H-pyran-5-yl)hexadecahydro-1H-cyclopenta[a]phenanthren-3-yl)urea], the solubility (as a rule, the concentration that dissolves in the medium under given conditions) at 24 h in data set [1] (setting [3]) is above 1000 µg/mL. In addition, the IC50 (as a rule, the concentration that inhibits the measured activity by half) in data set [2] is below 0.02 µM.

In the case of `CN(CCO)C1CC[C@@]2(C)[C@H](CC[C@@H]3[C@@H]2CC[C@]2(C)[C@@H](c4ccc(=O)oc4)CC[C@]32O)C1` (stereo partly drawn) [Compound C32, 5-((5R,8R,9S,10S,13R,14S,17R)-14-hydroxy-3-((2-hydroxyethyl)(methyl)amino)-10,13-dimethylhexadecahydro-1H-cyclopenta[a]phenanthren-17-yl)-2H-pyran-2-one], in data set [1] (setting [3]), the solubility at 24 h is below 100 µg/mL. The IC50 in data set [2] fell in the range of 0.1 to 1 µM.

`C[C@@H](N)C(=O)N[C@H]1CC[C@@]2(C)[C@H](CC[C@@H]3[C@@H]2CC[C@]2(C)[C@@H](c4ccc(=O)oc4)CC[C@]32O)C1` [Compound C26, (R)-2-amino-N-((3S,5R,8R,9S,10S,13R,14S,17R)-14-hydroxy-10,13-dimethyl-17-(2-oxo-2H-pyran-5-yl)hexadecahydro-1H-cyclopenta[a]phenanthren-3-yl)propanamide]: in data set [1] (setting [3]), the solubility at 24 h was above 1000 µg/mL. For the same compound, the IC50 in data set [2] was below 0.02 µM.

Regarding `CC(C)[C@@H](N)C(=O)N(C)C1CC[C@@]2(C)[C@H](CC[C@@H]3[C@@H]2CC[C@]2(C)[C@@H](c4ccc(=O)oc4)CC[C@]32O)C1` (stereo partly drawn) [Compound C22, (2R)-2-amino-N-((5R,8R,9S,10S,13R,14S,17R)-14-hydroxy-10,13-dimethyl-17-(2-oxo-2H-pyran-5-yl)hexadecahydro-1H-cyclopenta[a]phenanthren-3-yl)-N,3-dimethylbutanamide], in data set [1] (setting [3]), the solubility at 24 h was above 1000 µg/mL. Besides, the IC50 in data set [2] fell in the range of 0.02 to 0.1 µM.

For the compound `C[C@]12CC[C@H](NC(=O)N3CCOCC3)C[C@H]1CC[C@@H]1[C@@H]2CC[C@]2(C)[C@@H](c3ccc(=O)oc3)CC[C@]12O` [Compound C02, N-((3S,5R,8R,9S,10S,13R,14S,17R)-14-hydroxy-10,13-dimethyl-17-(2-oxo-2H-pyran-5-yl)hexadecahydro-1H-cyclopenta[a]phenanthren-3-yl)morpholine-4-carboxamide], in data set [1] (setting [3]), the solubility at 24 h is below 100 µg/mL. For the same compound, in data set [2], the IC50 was below 0.02 µM.

Consider `C[C@]12CCC(NC(=O)N3CCOCC3)C[C@@]1(O)CC[C@@H]1[C@@H]2CC[C@]2(C)[C@@H](c3ccc(=O)oc3)CC[C@]12O` (stereo partly drawn) [Compound C30, N-((5S,8R,9S,10R,13R,14S,17R)-5,14-dihydroxy-10,13-dimethyl-17-(2-oxo-2H-pyran-5-yl)hexadecahydro-1H-cyclopenta[a]phenanthren-3-yl)morpholine-4-carboxamide], for which the solubility at 24 h in data set [1] (setting [3]) is 100 to 1000 µg/mL (≈ 194 to 1940 µM). Besides, the IC50 in data set [2] fell in the range of 0.02 to 0.1 µM.

As for `C[C@]12CCC(NCCN3CCCC3)C[C@H]1CC[C@@H]1[C@@H]2CC[C@]2(C)[C@@H](c3ccc(=O)oc3)CC[C@]12O` (stereo partly drawn) [Compound C27, 5-((5R,8R,9S,10S,13R,14S,17R)-14-hydroxy-10,13-dimethyl-3-((2-(pyrrolidin-1-yl)ethyl)amino)hexadecahydro-1H-cyclopenta[a]phenanthren-17-yl)-2H-pyran-2-one], in data set [1] (setting [3]), the solubility at 24 h is above 1000 µg/mL. In data set [2], the IC50 is below 0.02 µM.

In the case of `C[C@]12CC[C@H](NC(=O)CN)C[C@H]1CC[C@@H]1[C@@H]2CC[C@]2(C)[C@@H](c3ccc(=O)oc3)CC[C@]12O` [Compound C12, 2-amino-N-((3S,5R,8R,9S,10S,13R,14S,17R)-14-hydroxy-10,13-dimethyl-17-(2-oxo-2H-pyran-5-yl)hexadecahydro-1H-cyclopenta[a]phenanthren-3-yl)acetamide], the solubility at 24 h in data set [1] (setting [3]) is above 1000 µg/mL. The IC50 in data set [2] was below 0.02 µM.

`C[C@]12CCC(N3CCCC3)C[C@H]1CC[C@@H]1[C@@H]2CC[C@]2(C)[C@@H](c3ccc(=O)oc3)CC[C@]12O` (stereo partly drawn) [Compound C20, 5-((5R,8R,9S,10S,13R,14S,17R)-14-hydroxy-10,13-dimethyl-3-(pyrrolidin-1-yl)hexadecahydro-1H-cyclopenta[a]phenanthren-17-yl)-2H-pyran-2-one]: the solubility at 24 h in data set [1] (setting [3]) was above 1000 µg/mL. Besides, the IC50 in data set [2] was below 0.02 µM.

On to `C[C@]12CCC(N3CCOCC3)C[C@H]1CC[C@@H]1[C@@H]2CC[C@]2(C)[C@@H](c3ccc(=O)oc3)CC[C@]12O` (stereo partly drawn) [Compound C28, 5-((5R,8R,9S,10S,13R,14S,17R)-14-hydroxy-10,13-dimethyl-3-morpholinohexadecahydro-1H-cyclopenta[a]phenanthren-17-yl)-2H-pyran-2-one], for which the solubility at 24 h in data set [1] (setting [3]) is above 1000 µg/mL. For the same compound, the IC50 in data set [2] fell in the range of 0.1 to 1 µM.

On to `C[C@]12CCC(NCCN3CCOCC3)C[C@H]1CC[C@@H]1[C@@H]2CC[C@]2(C)[C@@H](c3ccc(=O)oc3)CC[C@]12O` (stereo partly drawn) [Compound C18, 5-((5R,8R,9S,10S,13R,14S,17R)-14-hydroxy-10,13-dimethyl-3-((2-morpholinoethyl)amino)hexadecahydro-1H-cyclopenta[a]phenanthren-17-yl)-2H-pyran-2-one], for which, in data set [1] (setting [3]), the solubility at 24 h is above 1000 µg/mL. Besides, the IC50 in data set [2] lay in the range of 0.1 to 1 µM.

Consider `C[C@]12CCC(NC(=O)N3CCNCC3)C[C@H]1CC[C@@H]1[C@@H]2CC[C@]2(C)[C@@H](C3=CC(=O)OC3)CC[C@]12O` (stereo partly drawn) [Compound C24, N-((5R,8R,9S,10S,13R,14S,17R)-14-hydroxy-10,13-dimethyl-17-(5-oxo-2,5-dihydrofuran-3-yl)hexadecahydro-1H-cyclopenta[a]phenanthren-3-yl)piperazine-1-carboxamide], for which the solubility at 24 h in data set [1] (pH 5, aqueous buffer) is above 1000 µg/mL. Further, the IC50 in data set [2] lay in the range of 0.02 to 0.1 µM.

For the compound `C[C@]12CC[C@H](NC(=O)N3CCNCC3)C[C@H]1CC[C@@H]1[C@@H]2CC[C@]2(C)[C@@H](c3ccc(=O)oc3)CC[C@]12O` [Compound C04, N-((3S,5R,8R,9S,10S,13R,14S,17R)-14-hydroxy-10,13-dimethyl-17-(2-oxo-2H-pyran-5-yl)hexadecahydro-1H-cyclopenta[a]phenanthren-3-yl)piperazine-1-carboxamide], the solubility at 24 h in data set [1] (setting [3]) is above 1000 µg/mL. For the same compound, the IC50 in data set [2] is below 0.02 µM.

On to `C[C@]12CCC(N3CCNC(=O)C3)C[C@H]1CC[C@@H]1[C@@H]2CC[C@]2(C)[C@@H](c3ccc(=O)oc3)CC[C@]12O` (stereo partly drawn) [Compound C19, 4-((5R,8R,9S,10S,13R,14S,17R)-14-hydroxy-10,13-dimethyl-17-(2-oxo-2H-pyran-5-yl)hexadecahydro-1H-cyclopenta[a]phenanthren-3-yl)piperazin-2-one], for which the solubility at 24 h in data set [1] (setting [3]) lay within 100 to 1000 µg/mL (≈ 213 to 2130 µM). Further, in data set [2], the IC50 lay in the range of 0.02 to 0.1 µM.
